Measured values reported in ChEMBL document CHEMBL3112401, “Activity of diimidazoline amides against African trypanosomiasis” (Bioorg Med Chem Lett, 2014).
Blank lines part the entries; values can stand above or below the compound they belong to. Calls of active or inactive are those of the source. The calls are words filed in the database; no cut-off is given here.

Legend:
[1] = system: Trypanosoma brucei rhodesiense; assay: Antitrypanosomal activity against Trypanosoma brucei rhodesiense STIB900 assessed as parasite growth inhibition after 70 hrs by Alamar blue assay; format: functional, organism-based; conditions: STIB900, 70 h
L6 = assay: Cytotoxicity against rat L6 cells assessed as cell viability after 70 hrs by MTT assay; format: cell-based; conditions: L6, 70 h
[2] = system: Trypanosoma brucei rhodesiense; assay: Antitrypanosomal activity against Trypanosoma brucei rhodesiense infected in mouse assessed as cure rate at 40 mg/kg, ip administered on day 1 to 3 relative to control; format: functional; conditions: route intraperitoneal
[3] = system: Trypanosoma brucei rhodesiense; assay: Antitrypanosomal activity against Trypanosoma brucei rhodesiense infected in mouse assessed as survival more than 60 days without parasitemia relapse at 50 mg/kg, ip administered on day 3 to 6; format: functional, organism-based; set-up: dose 50 mg/kg
[4] = system: Trypanosoma brucei rhodesiense; assay: Antitrypanosomal activity against Trypanosoma brucei rhodesiense infected in mouse assessed as mean survival days at 50 mg/kg, ip administered on day 3 to 6 (reference value: 6 to 10 days); format: functional; conditions: route intraperitoneal
Mus musculus = assay: Toxicity in mouse infected with Trypanosoma brucei rhodesiense at 50 mg/kg, ip measured after day 3; format: organism-based; set-up: dose 50 mg/kg, route intraperitoneal; conditions: in vivo

- IC50 [1]: 2.2 µM
SMILES: O=C(NCc1ccccc1)c1ccc(-c2cc3ccc(C4=NCCN4)cc3[nH]2)cc1
- IC50 (L6): 110 µM

SMILES: CS(=O)(=O)O.O=C(Nc1ccc(NC(=O)c2ccc(C3=NCCN3)cc2)cc1)c1ccc(C2=NCCN2)cc1
- Activity [2]: 100%
- IC50 [1]: 0.12 µM
- Activity [3]: Active
- IC50 (L6): 92 µM
- MSD [4]: >60 days
- Activity (Mus musculus): Non-toxic

SMILES: CS(=O)(=O)O.O=C(Nc1ccc(C2=NCCN2)cc1)c1ccc(C(=O)Nc2ccc(C3=NCCN3)cc2)cc1
- Activity [2]: 100%
- IC50 [1]: 0.0047 µM
- IC50 (L6): 110 µM
- MSD [4]: 39 days

SMILES: Nc1nc(N)nc(Nc2ccc([As]3SCC(CO)S3)cc2)n1 (stereo unspecified) [MELARSOPROL]
- IC50 [1]: 0.0038 µM
- IC50 (L6): 19 µM

- IC50 [1]: 0.0022 µM
SMILES: O=C(Nc1ccc(C2=NCCN2)cc1)c1ccc(-c2cc3ccc(C4=NCCN4)cc3[nH]2)cc1
- Activity [2]: 100%
- IC50 (L6): 19 µM

- IC50 [1]: 0.69 µM
SMILES: O=C(N[C@H]1CC[C@H](NC(=O)c2ccc(C3=NCCN3)cc2)CC1)c1ccc(C2=NCCN2)cc1
- IC50 (L6): 130 µM

SMILES: CS(=O)(=O)O.O=C(Nc1ccc(C2=NCCN2)cc1)c1ccc(NC(=O)c2ccc(C3=NCCN3)cc2)cc1
- Activity [2]: 100%
- IC50 [1]: 0.011 µM
- Activity [3]: Active
- IC50 (L6): 50 µM
- MSD [4]: >60 days
- Activity (Mus musculus): Non-toxic

SMILES: CS(=O)(=O)O.O=C(Nc1ccc(C2=NCCN2)cc1)c1ccc(-c2ccc(C(=O)Nc3ccc(C4=NCCN4)cc3)cc2)cc1
- Activity [2]: 100%
- IC50 [1]: 0.019 µM
- Activity [3]: inactive
- IC50 (L6): > 150 µM
- MSD [4]: 11 days
- Activity (Mus musculus): Non-toxic

- IC50 [1]: 0.0015 µM
SMILES: N=C(N)c1ccc(OCCCCCOc2ccc(C(=N)N)cc2)cc1 [PENTAMIDINE ISETHIONATE]
- IC50 (L6): 5.1 µM

SMILES: CS(=O)(=O)O.O=C(Nc1ccc(C2=NCCN2)cc1)c1cccc(C(=O)Nc2ccc(C3=NCCN3)cc2)c1
- Activity [2]: 100%
- IC50 [1]: 0.051 µM
- Activity [3]: Active
- IC50 (L6): 120 µM
- MSD [4]: >60 days

SMILES: CS(=O)(=O)O.O=C(Nc1cccc(C(=O)Nc2ccc(C3=NCCN3)cc2)c1)c1ccc(C2=NCCN2)cc1
- Activity [2]: 100%
- IC50 [1]: 0.12 µM
- Activity [3]: Active
- IC50 (L6): 99 µM
- MSD [4]: >60 days
- Activity (Mus musculus): Non-toxic

- IC50 [1]: 9.5 µM
SMILES: O=C(NCc1ccc(C2=NCCN2)cc1)c1ccc(C(=O)NCc2ccc(C3=NCCN3)cc2)cc1
- IC50 (L6): 92 µM

- IC50 [1]: 64 µM
SMILES: O=C(NCc1ccc(C2=NCCN2)cc1)c1cccc(C(=O)NCc2ccc(C3=NCCN3)cc2)c1
- IC50 (L6): > 150 µM

SMILES: CS(=O)(=O)O.O=C(NCc1ccc(C2=NCCN2)cc1)c1ccc(-c2cc3ccc(C4=NCCN4)cc3[nH]2)cc1
- Activity [2]: 100%
- IC50 [1]: 0.0015 µM
- Activity [3]: inactive
- IC50 (L6): 41 µM
- Activity (Mus musculus): Toxic

SMILES: CS(=O)(=O)O.O=C(Nc1ccc(C2=NCCN2)cc1)c1ccc(C2=NCCN2)cc1
- Activity [2]: 100%
- IC50 [1]: 0.086 µM
- IC50 (L6): 68 µM
- MSD [4]: 34 days
- Activity (Mus musculus): Non-toxic

- IC50 [1]: 0.023 µM
SMILES: O=C(NCc1ccncc1)c1ccc(-c2cc3ccc(C4=NCCN4)cc3[nH]2)cc1
- Activity [2]: 100%
- IC50 (L6): 89 µM
